The source made the active and inactive calls. The rule behind the calls is not given here.
Key:
[1] = tested on: A549; assay: Antiproliferative activity against human A549 cells assessed as reduction in cell viability measured after 72 hrs by MTT assay; type: functional, cell-based
[2] = tested on: HepG2; assay: Antiproliferative activity against human HepG2 cells assessed as reduction in cell viability measured after 72 hrs by MTT assay; type: functional, cell-based
[3] = biological target: T1, Lysine-specific demethylase 4D (Homo sapiens) (UniProt Q6B0I6); assay: Inhibition of KDM4D in human HCT-116 cells assessed as reduction in beta-catenin protein expression incubated for 48 hrs measured by Western blot analysis; type: cell-based; settings: dose 2.5-20 µM
T1 sequence (whole entry): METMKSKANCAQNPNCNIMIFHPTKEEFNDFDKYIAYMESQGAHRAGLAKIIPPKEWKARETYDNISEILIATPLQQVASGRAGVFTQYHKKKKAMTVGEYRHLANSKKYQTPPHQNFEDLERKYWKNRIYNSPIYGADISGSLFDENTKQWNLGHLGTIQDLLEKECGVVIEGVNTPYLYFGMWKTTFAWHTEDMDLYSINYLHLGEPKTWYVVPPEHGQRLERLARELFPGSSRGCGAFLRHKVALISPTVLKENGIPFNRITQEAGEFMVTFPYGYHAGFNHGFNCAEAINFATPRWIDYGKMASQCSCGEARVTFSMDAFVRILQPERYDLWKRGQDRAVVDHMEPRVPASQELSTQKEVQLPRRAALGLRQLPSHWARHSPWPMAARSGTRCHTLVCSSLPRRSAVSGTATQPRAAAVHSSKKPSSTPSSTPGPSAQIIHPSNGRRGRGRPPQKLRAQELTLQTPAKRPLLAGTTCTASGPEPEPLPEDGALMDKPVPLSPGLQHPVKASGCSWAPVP

[4] = biological target: T1, Lysine-specific demethylase 4D (Homo sapiens); assay: Inhibition of KDM4D in human HCT-116 cells assessed as reduction in Gli1 protein expression incubated for 48 hrs measured by Western blot analysis; type: cell-based; settings: dose 2.5-20 µM
[5] = tested on: SW480; assay: Inhibition of colony formation in human SW480 cells incubated for 7 days by crystal violet staining based assay; type: functional, cell-based; settings: dose 2.5-10 µM, time 7.0 day
[6] = biological target: T1, Lysine-specific demethylase 4D (Homo sapiens); assay: Inhibition of KDM4D in human HCT-116 cells assessed as reduction in c-myc protein expression incubated for 48 hrs measured by Western blot analysis; type: cell-based; settings: dose 2.5-20 µM
[7] = tested on: HCT-116; assay: Inhibition of cell migration in human HCT-116 cells by crystal violet staining based transwell assay; type: functional; settings: dose 2.5-10 µM
[8] = tested on: SW-620; assay: Inhibition of colony formation in human SW-620 cells incubated for 7 days by crystal violet staining based assay; type: functional, cell-based; settings: dose 2.5-10 µM, time 7.0 day
[9] = tested on: HCT-116; assay: Downregulation of KDM4D expression in human HCT-116 cells at 2.5 to 20 uM incubated for 48 hrs measured by Western blot analysis; type: functional, cell-based; settings: dose 2.5-20 µM
[10] = biological target: T1, Lysine-specific demethylase 4D (Homo sapiens); assay: Inhibition of GST-tagged KDM4D (unknown origin) expressed in Escherichia coli DH5alpha assessed as histone demethylation activity using H3K9me3 as substrate incubated for 4 hrs in presence of FLAG-histone H3 measured by Western blot analysis; settings: dose 2.5-20 µM
[11] = tested on: HCT-116; assay: Inhibition of cell migration in human HCT-116 cells at 10 to 20 uM by wound healing assay; type: functional, cell-based; settings: dose 10-20 µM, time lower 12.0 hrs, time upper […], TDE = time-dependent effect
[12] = tested on: SMMC-7721; assay: Antiproliferative activity against human SMMC-7721 cells assessed as reduction in cell viability measured after 72 hrs by MTT assay; type: functional, cell-based
[13] = tested on: HCT-116; assay: Inhibition of cell migration in human HCT-116 cells at 20 uM incubated for 36 hrs by wound healing assay; type: functional
[14] = tested on: HeLa; assay: Antiproliferative activity against human HeLa cells assessed as reduction in cell viability measured after 72 hrs by MTT assay; type: functional, cell-based
[15] = tested on: HCT-116; assay: Inhibition of colony formation in human HCT-116 cells incubated for 7 days by crystal violet staining based assay; type: functional, cell-based; settings: dose 2.5-10 µM, time 7.0 day
[16] = tested on: HCT-116; assay: Inhibition of cell migration in human HCT-116 cells incubated for 12 to 36 hrs by wound healing assay; type: functional, cell-based; settings: dose 10-20 µM, time lower 12.0 hrs, time upper […]
[17] = tested on: HCT-116; assay: Inhibition of cell migration in human HCT-116 cells at 10 uM incubated for 36 hrs by wound healing assay; type: functional
[18] = tested on: Huh-7; assay: Antiproliferative activity against human Huh-7 cells assessed as reduction in cell viability measured after 72 hrs by MTT assay; type: functional, cell-based
[19] = tested on: DU-145; assay: Antiproliferative activity against human DU-145 cells assessed as reduction in cell viability measured after 72 hrs by MTT assay; type: functional, cell-based
[20] = tested on: NCI-H1792; assay: Antiproliferative activity against human NCI-H1792 cells assessed as reduction in cell viability measured after 72 hrs by MTT assay; type: functional, cell-based
[21] = tested on: SW480; assay: Antiproliferative activity against human SW480 cells assessed as reduction in cell viability measured after 72 hrs by MTT assay; type: functional, cell-based; settings: SW480, 72 h
[22] = Inhibition of KDM7B (unknown origin) by AlphaLISA assay; set-up: species or system Homo sapiens
[23] = tested on: SW-620; assay: Antiproliferative activity against human SW-620 cells assessed as reduction in cell viability measured after 72 hrs by MTT assay; type: functional, cell-based; settings: SW-620, 72 h
[24] = biological target: T1, Lysine-specific demethylase 4D (Homo sapiens); assay: Inhibition of human KDM4D expressed in Escherichia coli BL21 (DE3) at 1 uM using biotinylated H3-derived peptide and 2-OG as substrate preincubated for 15 mins followed by substrate addition and measured after 1 hr by AlphaLISA assay; settings: time 75.0 min
[25] = tested on: HCT-116; assay: Antiproliferative activity against human HCT-116 cells assessed as reduction in cell viability measured after 72 hrs by MTT assay; type: functional, cell-based; settings: HCT-116, 72 h
[26] = tested on: FaDu; assay: Antiproliferative activity against human FaDu cells assessed as reduction in cell viability measured after 72 hrs by MTT assay; type: functional, cell-based
[27] = biological target: T2, Lysine-specific demethylase 4D (Homo sapiens, UniProt Q6B0I6); assay: Inhibition of KDM4D (unknown origin)
T2 sequence (Q6B0I6 whole entry): T1 sequence (whole entry)

Compound: CC(C)(C)OC(=O)N[C@@H]1CCN(C(c2ccc(-c3ccncc3)cc2)c2cc3c(cc2O)OCO3)C1 (some centres not stated)
- Activity [1]: Active
- Activity [2]: Active
- inhibition [3]: Dose-Dependent Effect
- inhibition [4]: Dose-Dependent Effect
- inhibition [5]: Dose-Dependent Effect
- inhibition [6]: Dose-Dependent Effect
- inhibition [7]: Dose-Dependent Effect
- inhibition [8]: Dose-Dependent Effect
- inhibition [9]: Active
- inhibition [10]: Dose-Dependent Effect
- inhibition [11]: Tde
- Activity [12]: Active
- inhibition at 20 µM [13]: 94.1%
- Activity [14]: Active
- inhibition [15]: Dose-Dependent Effect
- inhibition [16]: Dose-Dependent Effect
- inhibition at 10 µM [17]: 42.4%
- Activity [18]: Active
- Activity [19]: Active
- Activity [20]: Active
- IC50 [21]: 10.7 µM
- IC50 [22]: 82.7 µM
- IC50 [23]: 19.2 µM
- inhibition [24]: 99.5%
- IC50 [25]: 10.7 µM
- Activity [26]: Active

Compound: Clc1ccc(N/N=C(\c2ccccc2)c2ccccn2)nc1
- IC50 [27]: 0.29 µM

— ChEMBL document CHEMBL4831501, “Discovery of a potent and selective inhibitor of histone lysine demethylase KDM4D” (Eur J Med Chem, 2021)
